The structures appear in SMILES notation. pIC50: −log10 of the molar value.

The target of one assay is SARS-CoV-2 Papain like protease (PLpro) (Severe acute respiratory syndrome coronavirus 2 (2019-nCoV) (SARS-CoV-2), UniProt P0DTD1). Briefly: Papain Like Protease (PLpro) biochemical assay with profluorogenic substrate Z-RLRGG-AMC. To be noted: IC50 (μM), SARS-CoV-2 PLpro 6.25 nM, 25 μM Z-RLRGG-AMC substrate, 60 minute reaction.
As for `Cc1ccccc1C(=O)NC(C)c1cc(-c2cnn(C(F)F)c2)nc2ccccc12` (centres unmarked) [Example 105, N-(1-{2-[1-(difluoromethyl)-1H-pyrazol-4-yl]quinolin-4-yl}ethyl)-2-methylbenzamide], the IC50 – broadly, the point on the concentration scale where inhibition reaches its midpoint – worked out at 0.266 µM.

Molecule `Cc1ccc(N2CC3CC(C2)N3)cc1C(=O)N[C@H](C)c1cc(-c2cnn(C)c2)nc2ccccc12` [Example 251, 5-(3,6-diazabicyclo[3.1.1]heptan-3-yl)-2-methyl-N—((R)-1-(2-(1-methyl-1H-pyrazol-4-yl)quinolin-4-yl)ethyl)benzamide] returned an IC50 of 0.005 µM.

On to `Cc1ccc(N2CCNCC2)cc1C(=O)NC1(c2cc(-c3cnn(C)c3)cc3ccccc23)CC1` [Example 230, 2-methyl-N-(1-(3-(1-methyl-1H-pyrazol-4-yl)naphthalen-1-yl)cyclopropyl)-5-(piperazin-1-yl)benzamide], for which the IC50 was 0.003 µM.

Staying with this assay, now noted: SARS-CoV-2 PLpro 6.25 nM, 25 μM Z-RLRGG-AMC substrate, 60 minute reaction; read-out: IC50.
`COC(=O)c1c[nH]c(-c2cc([C@@H](C)NC(=O)c3cc(CN)ccc3C)c3ccccc3n2)c1` [Example 19, methyl(R)-5-(4-(1-(5-(aminomethyl)-2-methylbenzamido)ethyl)quinolin-2-yl)-1H-pyrrole-3-carboxylate]: the pIC50 (commonly the IC50 on a negative log10 scale, so that one unit is a factor of ten) was 7.82.

Take `Cc1cc(COCc2cscn2)ccc1C(=O)NC1(c2cc(-c3cnn(CC(N)=O)c3)nc3ccccc23)CC1` [Example 352, N-(1-(2-(1-(2-amino-2-oxoethyl)-1H-pyrazol-4-yl)quinolin-4-yl)cyclopropyl)-2-methyl-4-((thiazol-4-ylmethoxy)methyl)benzamide]: the pIC50 was over 9.00.

As to `Cc1ccc(C(N)=O)cc1C(=O)NC(C)c1cc(-n2nccn2)cc2ccccc12` (centres unmarked) [Example 2, N^1-(1-(3-(2H-1,2,3-triazol-2-yl)naphthalen-1-yl)ethyl)-6-methylisophthalamide], the pIC50 is 5.86.

For `COC(=O)c1c[nH]c(-c2cc(C(C)NC(=O)c3cc(CN)ccc3C)c3ccccc3c2)c1` (centres unmarked) [Example 70, methyl 5-(4-(1-(5-(aminomethyl)-2-methylbenzamido)ethyl)naphthalen-2-yl)-1H-pyrrole-3-carboxylate], the pIC50 was 7.96.

Turning to `Cc1ccccc1C(=O)NC(C)c1cc(NC2CCOC2)nc2ccccc12` (centres unmarked) [Example 142, 2-methyl-N-(1-{2-[(oxolan-3-yl)amino]quinolin-4-yl}ethyl)benzamide], the pIC50 was 6.05.

For `Cc1ccc(CN)cc1C(=O)N[C@H](C)c1cc(-c2cnn(C)c2)cc2ccccc12` (single isomer, unassigned) [Example 8], the pIC50 was 7.60.

In the case of `COC(=O)/C=C/C(=O)NNC(=O)CCc1ccccc1C(=O)NC(C)c1cc(-c2cnn(C)c2)cc2ccccc12` (centres unmarked) [Example 64, methyl (E)-4-(2-(3-(2-((1-(3-(1-methyl-1H-pyrazol-4-yl)naphthalen-1-yl)ethyl)carbamoyl)phenyl)propanoyl)hydrazineyl)-4-oxobut-2-enoate], the pIC50 is 8.30.

Take `Cc1cc(C(=O)NCc2cscn2)ccc1C(=O)N[C@H](C)c1cc(-c2cnn(C)c2)nc2ccccc12` [Example 201, (R)-2-methyl-N1-(1-(2-(1-methyl-1H-pyrazol-4-yl)quinolin-4-yl)ethyl)-N4-(thiazol-4-ylmethyl)terephthalamide]: the pIC50 was 8.52.

With `Cc1cc(CNCc2cscn2)ccc1C(=O)NC1(c2cc(-c3cnn(C)c3)nc3ccccc23)CC1` [Example 210], the pIC50 was 8.22.

As for `Cc1cc(C(=O)NCc2ncoc2C)ccc1C(=O)N[C@H](C)c1cc(-c2cnn(C)c2)nc2ccccc12` [Example 317, (R)-2-methyl-N1-(1-(2-(1-methyl-1H-pyrazol-4-yl)quinolin-4-yl)ethyl)-N4-((5-methyloxazol-4-yl)methyl)terephthalamide], the pIC50 is 8.22.

Consider `Cc1ccccc1C(=O)NC(C)c1cc(-c2cnn(C(C)(C)C)c2)nc2ccccc12` (centres unmarked) [Example 113, N-{1-[2-(1-tert-butyl-1H-pyrazol-4-yl)quinolin-4-yl]ethyl}-2-methylbenzamide], for which the pIC50 is 6.10.

On to `Cc1ccccc1C(=O)NC(C)c1cc(N2CCC(S(=O)(=O)N(C)C)CC2)nc2ccccc12` (centres unmarked) [Example 151, N-(1-{2-[4-(dimethylsulfamoyl)piperidin-1-yl]quinolin-4-yl}ethyl)-2-methylbenzamide], for which the pIC50 was 5.84.

Regarding `C[C@@H](NC(=O)c1ccccc1CCC(=O)NNC(=O)[C@H]1O[C@@H]1C(=O)O)c1cc(-c2cnn(C)c2)nc2ccccc12` [Example 219, (2S,3S)-3-(2-(3-(2-(((R)-1-(2-(1-methyl-1H-pyrazol-4-yl)quinolin-4-yl)ethyl)carbamoyl)phenyl)propanoyl)hydrazine-1-carbonyl)oxirane-2-carboxylic acid], the pIC50 is 9.00.

As for `COC[C@@H](OCc1cscn1)c1ccc(C(=O)NC2(c3cc(-c4cc(C(=O)N(C)C)n[nH]4)nc4ccccc34)CC2)c(C)c1` (single isomer, unassigned) [Example 336], the pIC50 was over 9.00.

`Cc1ccccc1C(=O)NC(C)c1cc(CN2CCCC2=O)nc2ccccc12` (stereo in doubt) [Example 156, 2-methyl-N-[(1R)-1-{2-[(2-oxopyrrolidin-1-yl)-methyl]quinolin-4-yl}ethyl]benzamide]: the pIC50 is 5.14.

For the molecule `Cc1cc(CC(=O)Nc2cncs2)ccc1C(=O)N[C@H](C)c1cc(-c2cnn(C)c2)nc2ccccc12` [Example 237, (R)-2-methyl-N-(1-(2-(1-methyl-1H-pyrazol-4-yl)quinolin-4-yl)ethyl)-4-(2-oxo-2-(thiazol-5-ylamino)ethyl)benzamide], the pIC50 is 7.44.

With `Cc1ccccc1C(=O)N[C@H](C)c1cc(-c2ccn(C)n2)nc2ccccc12` [Example 12, (R)-2-methyl-N-(1-(2-(1-methyl-1H-pyrazol-3-yl)quinolin-4-yl)ethyl)benzamide], the negative logarithm of the IC50 (pIC50) is 6.27.

With `Cc1ccc(CN)cc1C(=O)N[C@H](C)c1cc(-n2ccnn2)nc2ccccc12` [Example 23, (R)—N-(1-(2-(1H-1,2,3-triazol-1-yl)quinolin-4-yl)ethyl)-5-(aminomethyl)-2-methylbenzamide], the pIC50 is 6.53.

Turning to `Cc1cc(COCc2cscn2)ccc1C(=O)NC1(c2cc(-c3cnn(C(C)(C)C(=O)N(C)C)c3)nc3ccccc23)CC1` [Example 363], the pIC50 was over 9.00.

Regarding `COC[C@@H](OCc1cocn1)c1ccc(C(=O)NC2(c3cc(-c4cnn(C)c4)nc4ccccc34)CC2)c(C)c1` (single isomer, unassigned) [Example 339], the pIC50 was over 9.00.

With `Cc1ccc(CN)cc1C(=O)N[C@H](C)c1cc(-n2cnnc2)nc2ccccc12` [Example 16, (R)—N-(1-(2-(4H-1,2,4-triazol-4-yl)quinolin-4-yl)ethyl)-5-(aminomethyl)-2-methylbenzamide], the pIC50 is 6.83.

Turning to `CNC(=O)c1cc(-c2cc(C3(NC(=O)c4ccc(COCc5cscn5)cc4C)CC3)c3ccccc3n2)[nH]n1` [Example 347, N-methyl-5-(4-(1-(2-methyl-4-((thiazol-4-ylmethoxy)methyl)benzamido)cyclopropyl)quinolin-2-yl)-1H-pyrazole-3-carboxamide], the pIC50 was over 9.00.

As to `Cc1cc(COCc2cscn2)ccc1C(=O)NC1(c2cc(-c3cnn(CCS(C)(=O)=O)c3)nc3ccccc23)CC1` [Example 328, 2-methyl-N-(1-(2-(1-(2-(methylsulfonyl)ethyl)-1H-pyrazol-4-yl)quinolin-4-yl)cyclopropyl)-4-((thiazol-4-ylmethoxy)methyl)benzamide], the pIC50 is over 9.00.

Regarding `CNC(=O)c1c[nH]c(-c2cc([C@@H](C)NC(=O)c3cc(CN)ccc3C)c3ccccc3n2)c1` [Example 22, (R)-5-(4-(1-(5-(aminomethyl)-2-methylbenzamido)ethyl)quinolin-2-yl)-N-methyl-1H-pyrrole-3-carboxamide], the pIC50 is 7.77.

As for `Cc1ccc(NC(=O)[C@H]2CCCCN2)cc1C(=O)NC(C)c1cc(N)nc2ccccc12` (mixture of isomers) [Example 25, (R)—N-(3-(((RS)-1-(2-aminoquinolin-4-yl)ethyl)carbamoyl)-4-methylphenyl)piperidine-2-carboxamide], the pIC50 is 7.00.

With `COCC(OCc1cscn1)c1ccc(C(=O)N[C@H](C)c2cc(-c3cnn(C)c3)nc3ccccc23)c(C)c1` (mixture of isomers) [Example 331, 4-(2-methoxy-1-(thiazol-4-ylmethoxy)ethyl)-2-methyl-N-((R)-1-(2-(1-methyl-1H-pyrazol-4-yl)quinolin-4-yl)ethyl)benzamide], the negative-log IC50 (pIC50) was over 9.00.

On to `Cc1ccccc1C(=O)NC(C)c1cc(-c2csc(C#N)c2)nc2ccccc12` (centres unmarked) [Example 103, N-{1-[2-(5-cyanothiophen-3-yl)quinolin-4-yl]ethyl}-2-methylbenzamide], for which the pIC50 is 6.21.

As for `Cc1ccc(N2CCN(C)CC2=O)cc1C(=O)N[C@H](C)c1cc(-c2cnn(C)c2)nc2ccccc12` [Example 249, (R)-2-methyl-N-(1-(2-(1-methyl-1H-pyrazol-4-yl)quinolin-4-yl)ethyl)-5-(4-methyl-2-oxopiperazin-1-yl)benzamide], the pIC50 was 6.13.

Consider `Cc1cc(CC(=O)Nc2cscn2)ccc1C(=O)N[C@H](C)c1cc(-c2cnn(C)c2)nc2ccccc12` [Example 236, (R)-2-methyl-N-(1-(2-(1-methyl-1H-pyrazol-4-yl)quinolin-4-yl)ethyl)-4-(2-oxo-2-(thiazol-4-ylamino)ethyl)benzamide], for which the pIC50 was 8.52.

On to `Cc1ccccc1C(=O)NC(C)c1cc(NCC2CCN(S(C)(=O)=O)CC2)nc2ccccc12` (centres unmarked) [Example 150], for which the pIC50 is 5.97.

Take `COC[C@H](OCc1cscn1)c1ccc(C(=O)NC2(c3cc(-c4cc(C(=O)N(C)C)n[nH]4)nc4ccccc34)CC2)c(C)c1` (single isomer, unassigned) [Example 337]: the pIC50 was over 9.00.

Turning to `Cc1ccccc1C(=O)N[C@H](C)c1cc(N(C)C)nc2ccccc12` [Example 42, (R)-N-(1-(2-(dimethylamino)quinolin-4-yl)ethyl)-2-methylbenzamide], the pIC50 was 5.66.

(Values after patent US20240245673A1, “Papain-like protease (PLpro) inhibitors” (Pfizer Inc., priority 2022, published 2024).)
